Laboratory results reported in patent US20060009425A1, “Oral formulations of paricalcitol” (priority 2004, published 2006).
Like-named read-outs stand apart in the source and are kept apart here.

Experiment: Single and multiple dose pharmacokinetics, moderate to severe chronic renal impairment (Example 4, Table 23)
Format: in vivo, human
Parameters: AUC0-24 on Study Day 8 vs. AUC0-∞ on Study Day 1, Point Estimate / AUC0-24 on Study Day 8 vs. AUC0-∞ on Study Day 1, 95% Confidence Interval: unit not given beside the values
Settings: for Cmax / Tmax / half-life / AUC(0-t) / AUC(0-inf) / fraction unbound / concentration at 24 h: human, plasma, oral; for AUC(0-t): read-out: AUC0-24; for concentration at 24 h: Study Day 9, read-out: trough concentration 24 h post dose on Study Day 8
Procedure: Methodology: This was a Phase 1, open-label, single and multiple-dose, multi-center study. A sufficient number of subjects were screened to have approximately 15 subjects with moderate renal impairment (CKD Stage 3) (Group 1, Glomerular Filtration Rate (GFR) of 30-60 mL/min) and approximately 15 subjects with severe renal impairment (CKD Stage 4) (Group 2, GFR <30 mL/min, not requiring dialysis) enrolled in the study. The subjects in moderate renal impairment group received 4 μg paricalcitol capsule on Study Day 1, and 4 μg QD for 6 doses over Study Days 3-8. The subjects in severe renal impairment group received 3 μg paricalcitol capsule on Study Day 1 and 3 μg QD for 6 doses over Study Days 3-8. Each dose of study was taken orally with approximately 180 mL of water at 0800, 30 minutes after breakfast was served.
Plasma concentrations of paricalcitol were determined using a validated liquid chromatography method with tandem mass spectrometric assay method at Abbott Laboratories, Ill.
Pharmacokinetic: Values for the pharmacokinetic parameters of paricalcitol, including the maximum observed plasma concentration (Cmax), the time to Cmax(Tmax), the terminal phase elimination rate constant (β), half life (t1/2), area under the plasma concentration-time curve (AUC), apparent total clearance (CL/F), and apparent volume of distribution (Vdβ/F) were determined using noncompartmental methods. Values of these parameters were determined after both single (first) dose (Study Day 1) and multiple doses (Study Day 8). In addition, minimum observed plasma concentration (Cmin), accumulation index (AI), and degree of fluctuation (DFL) after multiple doses were determined for the dose on Study Day 8 (steady state).
Pharmacokinetic: Point estimates and the corresponding 95% confidence intervals were obtained for central values of the pharmacokinetic parameters for each of the renal impairment groups. Two-sample t-test was performed to compare the pharmacokinetic parameters across the two renal impairment groups on each of Study Days 1 and 8. […] Within the framework of the analysis, the mean trough concentration values on Study Days 6, 7 and 8 were each compared to that at 24 h post Study Day 8 dose.
An analysis of variance (ANOVA) was performed on Tmax, β, and the logarithms of AUC and Cmax to compare the single-dose and steady-state data for each of the renal impairment groups. The same test was also performed for each group for the difference between the natural logarithm of the AUC0-24 on Day 8 and the natural logarithm of the AUC0-∞ on Study Day 1. Then the point estimate and 95% confidence interval for the ratio of the central values (the central value of the AUC0-24 on Study Day 8 to that of the AUC0-∞ on Study Day 1) were obtained by exponentiating the corresponding point estimate for the difference.
Paricalcitol capsules are under development for the prevention and treatment of secondary hyperparathyroidism in chronic kidney disease (CKD). The aim of this open-label, single and multiple dose, multi-center study was to evaluate the safety, and pharmacokinetics (PK) of paricalcitol in CKD Stage 3 (single 4 μg dose on Day 1 and 4 μg QD from Days 3-8) and CKD Stage 4 (single 3 μg dose on Day 1 and 3 μg QD from Days 3-8) subjects.

[1] = 3 ug, severe renal impairment, 3 μg QD, Study Day 8
[2] = 3 ug, severe renal impairment, 3 μg, Study Day 1
[3] = 4 ug, moderate renal impairment, 4 μg QD, Study Day 8
[4] = 4 ug, moderate renal impairment, 4 μg, Study Day 1
[5] = 4 μg, moderate renal impairment
[6] = moderate renal impairment, 4 μg QD, Study Day 8
[7] = moderate renal impairment, 4 μg, Study Day 1
[8] = severe renal impairment, 3 μg QD, Study Day 8
[9] = severe renal impairment, 3 μg, Study Day 1

For `C[C@H](/C=C/[C@H](C)C(C)(C)O)[C@H]1CC[C@H]2/C(=C/C=C3C[C@@H](O)C[C@H](O)C3)CCC[C@]12C` [Paricalcitol, 19-nor-1α,3β,25-trihydroxy-9,10-secoergosta-5(Z); 7(E),22(E)-triene], the Cmax [1] was 0.097 ± 0.023 ng/mL, the Tmax [1] was 9.1 ± 5.5 h and the half-life (3 ug, severe renal impairment, 3 μg QD, Study Day 8, harmonic mean ± pseudo-standard deviation, read-out: t1/2 (converted)) was 22.9 ± 5.63 h. For the same molecule, the AUC(0-t) [1] was 1.75 ± 0.421 ng·h/mL, the AUC(0-inf) [2] was 2.13 ± 0.733 ng·h/mL and the Cmax [2] was 0.065 ± 0.012 ng/mL. For the same molecule, the Tmax [2] was 5.9 ± 3.6 h, the half-life (3 ug, severe renal impairment, 3 μg, Study Day 1, harmonic mean ± pseudo-standard deviation, read-out: t1/2 (converted)) was 19.7 ± 7.19 h and the AUC(0-t) [2] was 1.02 ± 0.23 ng·h/mL. The fraction unbound (3 μg, severe renal impairment) was 0.0008 ± 0.0002, the concentration at 24 h (3 μg, severe renal impairment) was 0.057 ± 0.014 ng/mL and the Cmax [3] was 0.155 ± 0.057 ng/mL. For the same molecule, the Tmax [3] was 4.2 ± 1.9 h, the half-life (4 ug, moderate renal impairment, 4 μg QD, Study Day 8, harmonic mean ± pseudo-standard deviation, read-out: t1/2 (converted)) was 15.5 ± 3.21 h and the AUC(0-t) [3] was 2.22 ± 0.701 ng·h/mL. It also gave an AUC(0-inf) [4] of 2.42 ± 0.614 ng·h/mL, a Cmax [4] of 0.113 ± 0.036 ng/mL and a Tmax [4] of 4.7 ± 2.5 h. It also gave a half-life (4 ug, moderate renal impairment, 4 μg, Study Day 1, harmonic mean ± pseudo-standard deviation, read-out: t1/2 (converted)) of 16.8 ± 2.65 h, an AUC(0-t) [4] of 1.45 ± 0.407 ng·h/mL and a fraction unbound [5] of 0.0008 ± 0.0005. For the same molecule, the concentration at 24 h [5] was 0.057 ± 0.019 ng/mL, the half-life (moderate and severe renal impairment (CKD Stage 3 and 4) subjects, read-out: mean half-life) was 16 to 23 h and the “steady state essentially reached by” value (moderate and severe renal impairment subjects, QD dosing) was ≤ 6 Study Day. For the same molecule, the “AUC0-24 on Study Day 8 vs. AUC0-∞ on Study Day 1, 95% Confidence Interval” value (moderate renal impairment) was 0.8150-0.9896, the “AUC0-24 on Study Day 8 vs. AUC0-∞ on Study Day 1, Point Estimate” value (moderate renal impairment) was 0.8981 and the CL/F [6] was 2.014 ± 0.774 L/h. The Cmax/Dose [6] was 0.039 ± 0.014 ng/mL/µg, the Cmin [6] was 0.047 ± 0.018 ng/mL and the “DFL (degree of fluctuation)” value [6] was 116.77 ± 35.24%. For the same molecule, the Vdβ/F [6] was 46.76 ± 19.35 L, the β [6] was 0.045 ± 0.009 h−^1 and the CL/F [7] was 1.766 ± 0.505 L/h. It also gave a Cmax/Dose [7] of 0.028 ± 0.009 ng/mL/µg, a Vdβ/F [7] of 43.72 ± 14.45 L and a β [7] of 0.041 ± 0.007 h−^1. It also gave a pre-dose trough concentration (moderate renal impairment, Study Day 6) of 0.050 ± 0.016 ng/mL, a pre-dose trough concentration (moderate renal impairment, Study Day 7) of 0.053 ± 0.014 ng/mL and a pre-dose trough concentration (moderate renal impairment, Study Day 8) of 0.053 ± 0.019 ng/mL. The “AUC0-24 on Study Day 8 vs. AUC0-∞ on Study Day 1, 95% Confidence Interval” value (severe renal impairment) was 0.7612-0.9227, the “AUC0-24 on Study Day 8 vs. AUC0-∞ on Study Day 1, Point Estimate” value (severe renal impairment) was 0.8380 and the CL/F [8] was 1.751 ± 0.388 L/h. For the same molecule, the Cmax/Dose [8] was 0.032 ± 0.008 ng/mL/µg, the Cmin [8] was 0.049 ± 0.010 ng/mL and the “DFL (degree of fluctuation)” value [8] was 64.86 ± 17.79%. The Vdβ/F [8] was 61.61 ± 20.34^¥ L, the β [8] was 0.030 ± 0.007 h−^1 and the CL/F [9] was 1.517 ± 0.359 L/h. For the same molecule, the Cmax/Dose [9] was 0.022 ± 0.004 ng/mL/µg, the Vdβ/F [9] was 46.40 ± 12.45 L and the β [9] was 0.035 ± 0.013 h−^1. The pre-dose trough concentration (severe renal impairment, Study Day 6) was 0.051 ± 0.011 ng/mL, the pre-dose trough concentration (severe renal impairment, Study Day 7) was 0.050 ± 0.015 ng/mL and the pre-dose trough concentration (severe renal impairment, Study Day 8) was 0.056 ± 0.012 ng/mL.
